Measured values published in patent US12502393B2, “Dual mode of action soluble guanylate cyclase activators and phosphodiesterase inhibitors and uses thereof” (TOPADUR PHARMA AG, priority 2018, dated 2025).
Like-named read-outs stand apart in the source and are kept apart here.

Experiments:
[1] = molecular target: T1, recombinant human (rh) PDE5A (Homo sapiens, UniProt O76074); assay: Phosphodiesterase-5 activity assay (radiometric SPA); assay type: biochemical; details: rhPDE5A1, 0.5 μM cGMP, 20 min at 37° C.
T1 construct: GST; purchased SIGMA E9034

[2] = Human plasma protein binding; assay type: in vitro ADME; details: for fraction unbound: human
Method: An aliquot of 200 μL of human plasma containing test compound was spiked into donor well (red chamber) of the insert. 350 μL of PBS was spiked into receiver well (white chamber) of the insert.
The samples were matrix equilibrated with opposite matrix (25 μL of plasma/buffer sample was matched with 25 μL of blank buffer/plasma). Matrix matched samples were precipitated with 200 μL of acetonitrile containing internal standard. Samples were vortexed at 1000 rpm for 5 min and centrifuged at 4000 rpm for 10 min. Supernatant was separated, diluted 2 fold with water and analysed in LC-MS/MS. (Table 2).

[3] = read-out: % Unbound in human plasma
[4] = read-out: % Bound in human plasma (converted)

| Compound | IC50 [1] | also measured |
| --- | --- | --- |
| 4-ethoxy-3-(5-methyl-4-oxo-7-propyl-3,4-dihydroimidazo[5,1-f][1,2,4]triazin-2-yl)benzenesulfonyl chloride [Compound 24] | 0.4 nM | – |
| CCCc1nn(C)c2c(=O)[nH]c(-c3cc(S(=O)(=O)N4CCC(C(O)C(CO[N+](=O)[O-])CO[N+](=O)[O-])CC4)ccc3OCC)nc12 (racemic) [Compound 1i, 2-((1-((4-ethoxy-3-(1-methyl-7-oxo-3-propyl-6,7-dihydro-1H-pyrazolo[4,3-d]pyrimidin-5-yl)phenyl)sulfonyl)piperidin-4-yl)(hydroxy)methyl)propane-1,3-diyl dinitrate] | 4.2 nM | % Bound in human plasma [2]: 99.85%; fraction unbound [2, 3]: 0.0015 |
| CCCc1nn(C)c2c(=O)[nH]c(-c3cc(S(=O)(=O)N4CCC(C(O)CCO[N+](=O)[O-])CC4)ccc3OCC)nc12 (single isomer, unassigned) [Compound 1e, 3-(1-((4-ethoxy-3-(1-methyl-7-oxo-3-propyl-6,7-dihydro-1H-pyrazolo[4,3-d]pyrimidin-5-yl)phenyl)sulfonyl)piperidin-4-yl)-3-hydroxypropyl nitrate] | 4.6 nM | – |
| CCCc1nn(C)c2c(=O)[nH]c(-c3cc(S(=O)(=O)N4CCC(C(O)CCO[N+](=O)[O-])CC4)ccc3OCC)nc12 (single isomer, unassigned) [Compound 1f, 3-(1-((4-ethoxy-3-(1-methyl-7-oxo-3-propyl-6,7-dihydro-1H-pyrazolo[4,3-d]pyrimidin-5-yl)phenyl)sulfonyl)piperidin-4-yl)-3-hydroxypropyl nitrate] | 3.8 nM | – |
| CCCc1nn(C)c2c(=O)[nH]c(-c3cc(S(=O)(=O)N4CCC(C(CO)O[N+](=O)[O-])CC4)ccc3OCC)nc12 (single isomer, unassigned) [Compound 1k, 1-(1-((4-ethoxy-3-(1-methyl-7-oxo-3-propyl-6,7-dihydro-1H-pyrazolo[4,3-d]pyrimidin-5-yl)phenyl)sulfonyl)piperidin-4-yl)-2-hydroxyethyl nitrate] | 0.55 nM | – |
| CCCc1nn(C)c2c(=O)[nH]c(-c3cc(S(=O)(=O)N4CCC(C(CO)O[N+](=O)[O-])CC4)ccc3OCC)nc12 (single isomer, unassigned) [Compound 1l, 1-(1-((4-ethoxy-3-(1-methyl-7-oxo-3-propyl-6,7-dihydro-1H-pyrazolo[4,3-d]pyrimidin-5-yl)phenyl)sulfonyl)piperidin-4-yl)-2-hydroxyethyl nitrate] | 0.69 nM | – |
| CCCc1nc(C)c2c(=O)[nH]c(-c3cc(S(=O)(=O)N4CCC(C(O)CCO[N+](=O)[O-])CC4)ccc3OCC)nn12 (single isomer, unassigned) [Compound 2e, 3-(1-((4-ethoxy-3-(5-methyl-4-oxo-7-propyl-3,4-dihydroimidazo[5,1-f][1,2,4]triazin-2-yl)phenyl)sulfonyl)piperidin-4-yl)-3-hydroxypropyl nitrate] | 0.2 nM | – |
| CCCc1nc(C)c2c(=O)[nH]c(-c3cc(S(=O)(=O)N4CCC(C(O)CCO[N+](=O)[O-])CC4)ccc3OCC)nn12 (single isomer, unassigned) [Compound 2f, 3-(1-((4-ethoxy-3-(5-methyl-4-oxo-7-propyl-3,4-dihydroimidazo[5,1-f][1,2,4]triazin-2-yl)phenyl)sulfonyl)piperidin-4-yl)-3-hydroxypropyl nitrate] | 0.3 nM | – |
| CCCc1nc(C)c2c(=O)[nH]c(-c3cc(S(=O)(=O)N4CCC(C(CO)O[N+](=O)[O-])CC4)ccc3OCC)nn12 (single isomer, unassigned) [Compound 2k, 1-(1-((4-ethoxy-3-(5-methyl-4-oxo-7-propyl-3,4-dihydroimidazo[5,1-f][1,2,4]triazin-2-yl)phenyl)sulfonyl)piperidin-4-yl)-2-hydroxyethyl nitrate] | 0.26 nM | – |
| CCCc1nc(C)c2c(=O)[nH]c(-c3cc(S(=O)(=O)N4CCC(C(CO)O[N+](=O)[O-])CC4)ccc3OCC)nn12 (single isomer, unassigned) [Compound 2l, 1-(1-((4-ethoxy-3-(5-methyl-4-oxo-7-propyl-3,4-dihydroimidazo[5,1-f][1,2,4]triazin-2-yl)phenyl)sulfonyl)piperidin-4-yl)-2-hydroxyethyl nitrate] | 0.17 nM | – |
| CCCc1nn(C)c2c(=O)[nH]c(-c3cc(S(=O)(=O)N4CCC([C@@H](CO[N+](=O)[O-])O[N+](=O)[O-])CC4)ccc3OCC)nc12 [Compound 1b, (S)-1-(1-((4-ethoxy-3-(1-methyl-7-oxo-3-propyl-6,7-dihydro-1H-pyrazolo[4,3-d]pyrimidin-5-yl)phenyl)sulfonyl)piperidin-4-yl)ethane-1,2-diyl dinitrate] | 4.9 nM | – |
| CCCc1nn(C)c2c(=O)[nH]c(-c3cc(S(=O)(=O)N4CCC([C@H](O)CO[N+](=O)[O-])CC4)ccc3OCC)nc12 [Compound 1d, (S)-2-(1-((4-ethoxy-3-(1-methyl-7-oxo-3-propyl-6,7-dihydro-1H-pyrazolo[4,3-d]pyrimidin-5-yl)phenyl)sulfonyl)piperidin-4-yl)-2-hydroxyethyl nitrate] | 1.2 nM | – |
| CCCc1nn(C)c2c(=O)[nH]c(-c3cc(S(=O)(=O)N4CCC(C(O)(CCO)CCO[N+](=O)[O-])CC4)ccc3OCC)nc12 (centres unmarked) [Compound 1g, 3-(1-((4-ethoxy-3-(1-methyl-7-oxo-3-propyl-6,7-dihydro-1H-pyrazolo[4,3-d]pyrimidin-5-yl)phenyl)sulfonyl)piperidin-4-yl)-3,5-dihydroxypentyl nitrate] | 4.8 nM | – |
| CCCc1nn(C)c2c(=O)[nH]c(-c3cc(S(=O)(=O)N4CCC(C(O)(CCO[N+](=O)[O-])CCO[N+](=O)[O-])CC4)ccc3OCC)nc12 [Compound 1h, 3-(1-((4-ethoxy-3-(1-methyl-7-oxo-3-propyl-6,7-dihydro-1H-pyrazolo[4,3-d]pyrimidin-5-yl)phenyl)sulfonyl)piperidin-4-yl)-3-hydroxypentane-1,5-diyl dinitrate] | 4.7 nM | – |
| CCCc1nc(C)c2c(=O)[nH]c(-c3cc(S(=O)(=O)N4CCC([C@@H](CO[N+](=O)[O-])O[N+](=O)[O-])CC4)ccc3OCC)nn12 [Compound 2b, (S)-1-(1-((4-ethoxy-3-(5-methyl-4-oxo-7-propyl-3,4-dihydroimidazo[5,1-f][1,2,4]triazin-2-yl)phenyl)sulfonyl)piperidin-4-yl)ethane-1,2-diyl dinitrate] | 0.28 nM | – |
| CCCc1nc(C)c2c(=O)[nH]c(-c3cc(S(=O)(=O)N4CCC([C@H](O)CO[N+](=O)[O-])CC4)ccc3OCC)nn12 [Compound 2d, (S)-2-(1-((4-ethoxy-3-(5-methyl-4-oxo-7-propyl-3,4-dihydroimidazo[5,1-f][1,2,4]triazin-2-yl)phenyl)sulfonyl)piperidin-4-yl)-2-hydroxyethyl nitrate] | 0.16 nM | fraction unbound [2, 4]: 0.0173; fraction unbound [2, 3]: 0.0173 |
| CCCc1nn(C)c2c(=O)[nH]c(-c3cc(S(=O)(=O)N4CCC([C@H](O)CO)CC4)ccc3OCC)nc12 [Compound 6, (S)-5-(5-((4-(1,2-dihydroxyethyl)piperidin-1-yl)sulfonyl)-2-ethoxyphenyl)-1-methyl-3-propyl-1,6-dihydro-7H-pyrazolo[4,3-d]pyrimidin-7-one] | 1.6 nM | – |
| CCCc1nn(C)c2c(=O)[nH]c(-c3cc(S(=O)(=O)N4CCN(C)CC4)ccc3OCC)nc12 [Sildenafil, 5-(2-ethoxy-5-((4-methylpiperazin-1-yl)sulfonyl)phenyl)-1-methyl-3-propyl-1,6-dihydro-7H-pyrazolo[4,3-d]pyrimidin-7-one, reference compound] | – | fraction unbound [2, 4]: 0.0421; fraction unbound [2, 3]: 0.0419 |

Second part, led by results:

| IC50 [1] | Compound | also measured |
| --- | --- | --- |
| 0.4 nM | CCCc1nc(C)c2c(=O)[nH]c(-c3cc(S(=O)(=O)N4CCC(C(O)CCO)CC4)ccc3OCC)nn12 (racemic) [Compound 27, 2-(5-((4-(1,3-dihydroxypropyl)piperidin-1-yl)sulfonyl)-2-ethoxyphenyl)-5-methyl-7-propylimidazo[5,1-f][1,2,4]triazin-4(3H)-one] | – |
| 4.4 nM | CCCc1nn(C)c2c(=O)[nH]c(-c3cc(S(=O)(=O)N4CCC(C(O)CCO)CC4)ccc3OCC)nc12 (single isomer, unassigned) [Compound 14-1, 5-(5-((4-(1,3-dihydroxypropyl)piperidin-1-yl)sulfonyl)-2-ethoxyphenyl)-1-methyl-3-propyl-1,6-dihydro-7H-pyrazolo[4,3-d]pyrimidin-7-one] | – |
| 3.9 nM | CCCc1nn(C)c2c(=O)[nH]c(-c3cc(S(=O)(=O)N4CCC(C(O)CCO)CC4)ccc3OCC)nc12 (single isomer, unassigned) [Compound 14-2, 5-(5-((4-(1,3-dihydroxypropyl)piperidin-1-yl)sulfonyl)-2-ethoxyphenyl)-1-methyl-3-propyl-1,6-dihydro-7H-pyrazolo[4,3-d]pyrimidin-7-one] | – |
| 2 nM | CCCc1nn(C)c2c(=O)[nH]c(-c3cc(S(=O)(=O)N4CCC(C(O)(CCO)CCO)CC4)ccc3OCC)nc12 [Compound 15, 5-(2-ethoxy-5-((4-(1,3,5-trihydroxypentan-3-yl)piperidin-1-yl)sulfonyl)phenyl)-1-methyl-3-propyl-1,6-dihydro-7H-pyrazolo[4,3-d]pyrimidin-7-one] | – |
| 0.07 nM | CCCc1nc(C)c2c(=O)[nH]c(-c3cc(S(=O)(=O)N4CCC([C@H](O)CO)CC4)ccc3OCC)nn12 [Compound 26, (S)-2-(5-((4-(1,2-dihydroxyethyl)piperidin-1-yl)sulfonyl)-2-ethoxyphenyl)-5-methyl-7-propyl imidazo[5,1-f][1,2,4]triazin-4(3H)-one] | – |
| 0.37 nM | CCCc1nc(C)c2c(=O)[nH]c(-c3cc(S(=O)(=O)N4CCC(C(O)C(CO)CO)CC4)ccc3OCC)nn12 (centres unmarked) [Compound 29, 2-(5-((4-(1,3-dihydroxy-2-(hydroxymethyl)propyl)piperidin-1-yl)sulfonyl)-2-ethoxyphenyl)-5-methyl-7-propylimidazo[5,1-f][1,2,4]triazin-4(3H)-one] | – |
